Assays:
[1] = Acute dose response of LY426965 on food intake in WT mice; format: in vivo
Description: (§1) This decrease in food intake reached 77% of control values when using 20 mg/kg of the compound (FIG. 19 C). […] Thus LY426965 decreases appetite in WT mice by inhibiting serotonin signaling through the Htr1a receptor that is located in the hypothalamus.
(§2) One or 3-month old C57B1/6J inbred female mice were used in these experiments. Two different experimental regimens were utilized to assess the effect of LY426965 on appetite in WT and ob/ob mice.
Animals were separated into individual cages one day prior to the experiment. Compound LY426965 was dissolved in water and fed orally (Gavage) according to the weight of the mouse at doses 1, 5, 10 and 20 mg/kg BW two hours prior to the commencement of the dark cycle. Control animals received the same volume of vehicle. Food intake was measured every 12 hours for 36 hours after giving one dose of the antagonist.

[2] = Mass spectrometric analysis of mice hypothalami after administration of the compound; format: in vivo
Description: as §1

[3] = Food intake in leptin-deficient ob/ob mice after a single dose of LY426965; format: in vivo; details: 4-week old ob/ob mice, single dose 0.2 mg/20 g of body weight, 12, 24 and 36 h later
Description: (§3) To determine whether LY426965 could decrease appetite in leptin-deficient ob/ob mice, we administered 4-week old ob/ob mice with a single dose of LY426965 (0.2 mg/20 g of body weight) and measured food intake 12, 24 and 36 h later. […] Experiments were conducted to determine whether LY426965 could rescue, at least in part, the obesity of ob/ob mice if administered chronically, once mice had already developed an obesity phenotype. 4-week old ob/ob mice were administered daily with 20 mg/kg body weight dose of LY426965 for 4 additional weeks.
as §2

Htr1a receptor = target: T1, Htr1a receptor (Homo sapiens, UniProt P08908); details: cited from earlier work
T1 sequence (P08908 1-422): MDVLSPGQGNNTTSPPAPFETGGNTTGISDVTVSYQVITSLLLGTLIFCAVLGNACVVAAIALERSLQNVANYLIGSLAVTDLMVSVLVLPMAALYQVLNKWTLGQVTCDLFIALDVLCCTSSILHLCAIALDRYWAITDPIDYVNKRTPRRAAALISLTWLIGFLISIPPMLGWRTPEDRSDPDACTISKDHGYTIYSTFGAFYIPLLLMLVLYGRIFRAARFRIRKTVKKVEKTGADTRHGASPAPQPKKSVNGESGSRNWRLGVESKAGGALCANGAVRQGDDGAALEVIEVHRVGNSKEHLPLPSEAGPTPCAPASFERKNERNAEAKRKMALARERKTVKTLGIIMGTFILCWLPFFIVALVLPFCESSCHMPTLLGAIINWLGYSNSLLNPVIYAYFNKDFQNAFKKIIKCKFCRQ

[4] = Appetite in Htr1aPomc-/- mice treated with LY426965; format: in vivo
Description: These two hypotheses were tested through the use of a small molecule that selectively antagonizes signaling through Htr1a receptor. Other Htr1a and 2b receptor antagonists for use in the present invention are discussed below.
Animals were housed under 12 h light/12 h dark conditions with ad libitum access to food and water, and were used after a minimum of 4 days of acclimatization to the housing conditions. Control, Htr1aPomc−/−, Htr2bPomc−/−, Htr1a; 2 bPomc−/−, CrebPomc−/− mice were separated into individual cages one day prior to the experiment. Food intake and energy expenditure was measured every 12 hours for 36 hours essentially as described previously (6, 17).

[5] = Chronic treatment of ob/ob mice with LY426965; format: in vivo; details: 20 mg/kg body weight daily for 4 weeks from 4 weeks of age
Description: as §3
In this experiment one-month old WT and ob/ob mice (housed individually in metabolic cages) were divided into different groups and injected with the LY426965 dissolved in water and diluted in saline (final concentration 0.9%) once a day, 2 hours prior to the commencement of the dark cycle, for 4 weeks. Body weight was recorded everyday and dose of the drug and vehicle adjusted accordingly. At the end of the experiment all mice were subjected to measurement of food intake every 12 hours over a period of 36 hours.

COc1ccccc1N1CCN(CC[C@](C)(C(=O)C2CCCCC2)c2ccccc2)CC1 [LY426965]
decrease in food intake ([1]; 20 mg/kg, WT mice): 77 % of control values
appetite (dose response) ([1]; 1 to 20 mg/kg of body weight fed to 12 week-old C57B16/J mice): dose-dependent decrease in appetite
compound reaching the hypothalamus [2]: could reach the hypothalamus
food intake lower than in vehicle-treated mice [3]: 20-25%
selectivity over other serotonin and non-serotonin receptor subtypes (Htr1a receptor): ≥ 20 fold
Ki (Htr1a receptor; read-out: affinity for the Htr1a receptor (Ki)): 4.66 nM
appetite [4]: not decreased
obesity phenotype [5]: significantly decreased the obesity phenotype

From patent publication US20120115778A1, “Methods of Suppressing Appetite by the Administration of Antagonists of the Serotonin HTR1a or HTR2b Receptors or Inhibitors of TPH2” (The Trustees of Columbia University in the City of New York, priority 2009, published 2012)
